Article PMC9886550, “Molecular mechanism of topoisomerase poisoning by the peptide antibiotic albicidin” (Nature Catalysis, 2023)
Converted amounts (≈) assume the structure as drawn. Like-named read-outs stand apart in the source and are kept apart here.

Columns and labels:
[1] = biological target: T1, WT E. coli gyrase (Escherichia coli, UniProt P0AES4+P0AES6); experiment: biochemical; format: biochemical; conditions: for % maximal cleavage: GyraseWT, average of 3 independent assays
T1 construct: alternative cryo-EM approach involving full-length E. coli gyrase; 10-His (cleaved yes); Twin-Strep (cleaved yes); made in house
T1 sequence (P0AES4 whole entry, one chain of several): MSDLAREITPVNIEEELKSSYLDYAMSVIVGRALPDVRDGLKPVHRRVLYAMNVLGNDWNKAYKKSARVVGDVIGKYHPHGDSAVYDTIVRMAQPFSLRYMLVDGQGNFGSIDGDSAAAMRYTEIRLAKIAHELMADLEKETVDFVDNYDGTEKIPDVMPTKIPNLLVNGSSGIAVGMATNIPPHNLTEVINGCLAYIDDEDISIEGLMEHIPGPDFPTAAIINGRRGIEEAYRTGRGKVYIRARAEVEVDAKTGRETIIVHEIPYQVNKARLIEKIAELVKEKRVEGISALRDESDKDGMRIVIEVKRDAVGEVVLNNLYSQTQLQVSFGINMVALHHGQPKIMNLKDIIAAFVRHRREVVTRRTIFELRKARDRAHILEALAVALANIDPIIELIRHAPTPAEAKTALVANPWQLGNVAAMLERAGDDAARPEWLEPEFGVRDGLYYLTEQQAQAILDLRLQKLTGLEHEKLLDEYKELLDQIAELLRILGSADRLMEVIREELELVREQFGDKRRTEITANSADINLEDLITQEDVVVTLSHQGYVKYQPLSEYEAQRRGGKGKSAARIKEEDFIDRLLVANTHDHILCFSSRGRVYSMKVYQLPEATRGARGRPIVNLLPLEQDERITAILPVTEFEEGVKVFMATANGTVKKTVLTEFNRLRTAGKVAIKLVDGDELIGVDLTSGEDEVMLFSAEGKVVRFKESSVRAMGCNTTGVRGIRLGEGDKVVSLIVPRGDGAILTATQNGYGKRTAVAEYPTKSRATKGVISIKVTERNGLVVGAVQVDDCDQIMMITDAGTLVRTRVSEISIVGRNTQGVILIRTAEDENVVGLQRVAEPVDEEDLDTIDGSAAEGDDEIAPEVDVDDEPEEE
Description: For DNA gyrase supercoiling assays to characterize gyrase mutants, 15 µl reactions were set up containing 250 ng of relaxed DNA, E. coli gyrase supercoiling buffer (35 mM Tris–Cl pH 7.5, 24 mM KCl, 4 mM MgCl2, 2 mM DTT, 1.8 mM spermidine, 1 mM ATP, 6.0% (w/v) glycerol, and 0.1 mg ml^−1 BSA), gyrase subunits and inhibitors. Concentrations of enzyme and inhibitor are stated in the figure legends. Inhibitors were diluted in the following way to reduce the chance of precipitation: stock compound in 100% DMSO was diluted to 5 mM in 100% DMSO. This compound solution was diluted to 1 mM by stepwise addition of 1 µl of 50% DMSO with thorough mixing via pipetting after each addition. All subsequent dilutions up to 100 µM were performed in the same way using H2O. After this point, compounds were stable and could be diluted in the normal way. Reactions were incubated at 37 °C for 30 min before stopping with 15 µl chloroform:isoamyl alcohol (24:1 v/v) and 15 µl of STEB (40% (w/v) sucrose, 100 mM Tris–Cl pH 8, 10 mM EDTA, 0.5 mg ml^−1 bromophenol blue).
Cleavage assays were set up in the same way as supercoiling assays with some modifications. The concentration of enzyme was increased 4-fold relative to the supercoiling assay and reactions were incubated for 1 h before addition of 0.2% SDS and proteinase K (0.2 mg ml^−1) and further incubation at 37 °C for 30 min to trap cleavage complexes. Reactions were stopped in the same way as supercoiling assays.
(§1) Results were visualized by agarose gel electrophoresis: 1% agarose Tris-acetate-EDTA (TAE) gels were run without ethidium bromide (supercoiling) or with 10 µg ml^−1 ethidium bromide (cleavage) at 8 V cm^−1.
DNA cleavage gels were analysed using densitometry (ImageJ). Experiments were carried out in triplicate and expressed as mean ± s.d. Curves were fitted using OriginPro 2021 (Origin Lab) according to a modified Hill equation:1 y=cI+(cF−cI)[…]/(k^n+x^n) where y is the percentage of cleaved DNA, cI is the initial cleavage, cF is the final cleavage, k is the CC50 (the concentration of inhibitor that results in cleavage of 50% of DNA), n is a slope factor and x is the inhibitor concentration.

[2] = system: selected Gram-negative and Gram-positive microorganisms; experiment: MIC activity groups over all tested strains; format: cell-based; set-up: key: a: most potent; b: intermediate; least active; conditions: MIC panel
Description: (§2) MIC values were determined according to the ninth edition of the Approved Standard M07-A9. The test was carried out for six different bacterial strains (E. coli DSM 1116 (Gram-negative), E. coli BW25113 (Gram-negative), B. subtilis DSM 10 (Gram-positive), M. luteus DSM 1790 (Gram-positive), M. phlei DSM 750 (Gram-positive), S. typhimurium TA 100 (Gram-negative). First, 20 µl of glycerol stock of each strain was inoculated in 20 ml LB (Lennox) followed by incubation overnight at 37 °C, 200 r.p.m. The test inoculum was adjusted by the 0.5 McFarland Standard. Within 15 min of preparation, the adjusted inoculum suspension was diluted in MHBII so that each well contained approximately 5 × 10^5 c.f.u. ml^−1 in a final volume of 100 µl. Then, 95 µl of the inoculum was applied per well and 5 µl of the (diluted) albicidins was added. For dilutions, the dry powders were dissolved in dimethylsulfoxide (DMSO) with a concentration of 2.56 mg ml^−1, and the obtained stock solutions were further diluted in DMSO. Next, 5 µl of each antibiotic dilution was applied to the microdilution tray to reach final concentrations of 8 to 0.016 µg ml^−1. One row of each well plate served as a growth control without antibiotic and another row of the microdilution tray served as a sterility control (only MHBII media). The antimicrobial effect of the solvent was tested by adding 5 µl DMSO to several wells. Purity check and cell titre control were performed according to International Standard M07-A9 on Mueller–Hinton II Agar. Both microdilution trays and agar plates were incubated at 37 °C for 20 h.

[3] = biological target: E. coli Topo IV (Escherichia coli, UniProt P0AFI2+P20083); experiment: Topo IV cleavage assay (cleavage complex stabilization); format: biochemical
Sequence of E. coli Topo IV (P0AFI2 whole entry): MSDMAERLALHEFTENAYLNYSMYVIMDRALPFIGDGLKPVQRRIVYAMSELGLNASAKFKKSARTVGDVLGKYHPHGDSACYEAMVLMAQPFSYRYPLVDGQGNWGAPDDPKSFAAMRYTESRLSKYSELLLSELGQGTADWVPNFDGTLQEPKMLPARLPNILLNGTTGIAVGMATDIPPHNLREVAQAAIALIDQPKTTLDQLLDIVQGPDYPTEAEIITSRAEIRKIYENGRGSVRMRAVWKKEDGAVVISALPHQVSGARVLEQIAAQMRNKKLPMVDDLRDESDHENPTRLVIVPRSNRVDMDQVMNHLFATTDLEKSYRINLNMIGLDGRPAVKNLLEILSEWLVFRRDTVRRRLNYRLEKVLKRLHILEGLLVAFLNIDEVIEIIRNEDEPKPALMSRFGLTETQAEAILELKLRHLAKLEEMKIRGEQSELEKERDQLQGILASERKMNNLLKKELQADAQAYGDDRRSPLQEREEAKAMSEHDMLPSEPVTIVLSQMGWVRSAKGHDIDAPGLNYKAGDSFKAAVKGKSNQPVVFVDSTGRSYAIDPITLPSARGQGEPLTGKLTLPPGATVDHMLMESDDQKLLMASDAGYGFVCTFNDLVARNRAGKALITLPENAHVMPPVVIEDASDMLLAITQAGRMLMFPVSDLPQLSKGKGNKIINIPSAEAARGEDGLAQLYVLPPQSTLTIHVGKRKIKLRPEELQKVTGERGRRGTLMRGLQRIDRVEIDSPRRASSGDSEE
Sequence of E. coli Topo IV (P20083 whole entry): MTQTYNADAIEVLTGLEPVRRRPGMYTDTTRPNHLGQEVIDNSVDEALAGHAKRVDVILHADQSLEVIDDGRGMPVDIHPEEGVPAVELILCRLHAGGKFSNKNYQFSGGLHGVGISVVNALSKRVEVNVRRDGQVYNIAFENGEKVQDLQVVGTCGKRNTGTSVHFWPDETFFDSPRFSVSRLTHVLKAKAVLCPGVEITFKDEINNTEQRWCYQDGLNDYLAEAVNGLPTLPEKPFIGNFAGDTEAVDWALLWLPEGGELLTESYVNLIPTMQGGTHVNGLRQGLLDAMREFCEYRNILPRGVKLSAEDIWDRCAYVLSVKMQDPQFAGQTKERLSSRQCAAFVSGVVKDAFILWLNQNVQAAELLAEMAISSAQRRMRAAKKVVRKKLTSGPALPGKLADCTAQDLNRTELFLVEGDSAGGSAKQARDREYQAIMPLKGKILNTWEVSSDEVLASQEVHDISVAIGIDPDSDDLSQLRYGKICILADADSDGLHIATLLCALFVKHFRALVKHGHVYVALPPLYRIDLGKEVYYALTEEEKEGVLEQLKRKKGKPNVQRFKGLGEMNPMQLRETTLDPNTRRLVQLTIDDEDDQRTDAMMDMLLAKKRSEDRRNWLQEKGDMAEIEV
Description: Topo IV cleavage assays were set up in the same way as relaxation assays with some modifications. The concentration of enzyme was increased by 20% and cleavage complexes were trapped by the addition of 0.2% SDS and proteinase K (0.2 mg ml^−1) and further incubation at 37 °C for 30 min. Reactions were stopped in the same way as supercoiling assays.
as §1
Supplementary Figure 11. Activity of albicidin and Albi-1/2/3 on E. coli […]
Cleavage activity of E. coli topo IV in the presence of albicidin, Albi-1, Albi-2 and Albi-3. First lane: negatively supercoiled pBR322; second lane: innate cleavage activity of E. coli topo IV (15 nM); third lane: effect of 20 µM CFX; subsequent lanes: effect of increasing compound concentration (0.1, 1, 10, 100 µM). […]
concentration. All experiments were carried out in triplicates and representative gels […]
(1 picture or pasted object on this page, not shown here)

[4] = system: E. coli BW25113; experiment: MIC determination (microdilution, M07-A9); format: cell-based
Description: as §2

[5] = system: S. typhimurium TA100; experiment: MIC determination (microdilution, M07-A9); format: cell-based
Description: as §2

[6] = system: B. subtilis DSM10; experiment: MIC determination (microdilution, M07-A9); format: cell-based; conditions: Bacillus subtilis
Description: as §2

[7] = system: M. phlei DSM750; experiment: MIC determination (microdilution, M07-A9); format: cell-based; conditions: Mycolicibacterium phlei
Description: as §2

[8] = system: M. luteus DSM1790; experiment: MIC determination (microdilution, M07-A9); format: cell-based
Description: as §2

[9] = system: E. coli DSM116; experiment: MIC determination (microdilution, M07-A9); format: cell-based; conditions: Escherichia coli, DSM116, E. coli DSM116, read-out: MIC
Description: as §2

[10] = E. coli BW25113, second value in cell (biological replicate)
[11] = Escherichia coli, BW25113, E. coli strain not named, read-out: MIC for E. coli
[12] = Escherichia coli, E. coli BW25113, first value in cell (biological replicate), read-out: MIC
[13] = Salmonella enterica, first value in cell (biological replicate), read-out: MIC
[14] = second value in cell (biological replicate)
[15] = first value in cell (biological replicate)
[16] = Micrococcus luteus, first value in cell (biological replicate), read-out: MIC

`CC(C)Oc1c(NC(=O)c2ccc(NC(=O)[C@H](Cc3c[nH]nn3)NC(=O)c3ccc(NC(=O)c4ccc(C#N)cc4)cn3)cn2)ccc(C(=O)Nc2ccc(C(=O)O)cc2)c1O` [Albi-1] was tested, and the “% maximal cleavage” value [1] was 73±6%, the EC50 ([1]; Gyrase^WT, mean ± s.d. of triplicate, read-out: CC50 (the source's name)) was 8 ± 2.7 nM and the “activity group (superscript letter)” value [2] was “Albi-1^a”. For the same compound, the “concentration at which a linear DNA band could be observed” value ([3]; Topo IV cleavage complex stabilization, tested 0.1, 1, 10, 100 µM) was 1 µM, the “stabilization of the cleavage complex with Topo IV” value ([3]; in words) was “could stabilize the cleavage complex” and the MIC [4, 10] was <0.016 <0.016 µg ml^−1. The MIC [4, 11] was at most 0.016 µg/mL, the MIC [4, 12] was under 0.016 µg/mL and the MIC [5, 13] was under 0.016 µg/mL. For the same compound, the MIC [5, 14] was <0.016 <0.016 µg ml^−1, the MIC [6, 15] was 0.031 µg/mL (≈ 0.037 µM) and the MIC [6, 14] was 0.063 µg/mL (≈ 0.0752 µM). The MIC [7, 15] was 0.25 µg/mL (≈ 0.298 µM), the MIC [7, 14] was 0.5 µg/mL (≈ 0.597 µM) and the MIC [8, 16] was under 0.016 µg/mL. For the same compound, the MIC [8, 14] was <0.016 <0.016 µg ml^−1, the MIC [9, 15] was 0.031 µg/mL (≈ 0.037 µM) and the MIC [9, 14] was 0.031 µg/mL (≈ 0.037 µM).
`COc1c(NC(=O)c2ccc(NC(=O)c3ccc(NC(=O)[C@H](Cc4c[nH]nn4)NC(=O)c4ccc(NC(=O)c5ccc6cc(O)ccc6c5)cc4)cn3)c(OCCN)c2O)ccc(C(=O)O)c1O` [Albi-2] was tested, and the “% maximal cleavage” value [1] was 78±2%, the “activity group (superscript letter)” value [2] was “Albi-2^b” and the MIC [4, 10] was 4.0 µg/mL (≈ 4.32 µM). The MIC [4, 11] was 4 µg/mL (≈ 4.32 µM), the MIC [4, 12] was 4 µg/mL (≈ 4.32 µM) and the “increase in MIC for E. coli compared with the parent compound” value ([4]; vs albicidin) was 60 fold. For the same compound, the MIC [5, 13] was 0.5 µg/mL (≈ 0.541 µM), the MIC [5, 14] was 0.5 µg/mL (≈ 0.541 µM) and the MIC [6, 15] was over 8 µg/mL. The MIC [6, 14] was over 8 µg/mL, the MIC [7, 15] was over 8 µg/mL and the MIC [7, 14] was over 8 µg/mL. The MIC [8, 16] was over 8 µg/mL, the MIC [8, 14] was >8.0 >8.0 µg ml^−1 and the MIC [9, 15] was 2 µg/mL (≈ 2.16 µM). It also gave an MIC [9, 14] of 4 µg/mL (≈ 4.32 µM).
